Measurements as given in PubChem BioAssay (NCI).
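Interpolation was linear, between the two tested concentrations surrounding the appropriate level; five concentrations were tested over 48 hours in 96-well plates. The concentration for 50% growth inhibition is given as GI50. TGI: total growth inhibition.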

Tests used:
Experiment in all cases: NCI-60 cell line screen, 48 h
[1] = tested on: 786-0 renal
[2] = tested on: A498 renal
[3] = tested on: A549 NSCLC
[4] = tested on: ACHN renal
[5] = tested on: BT-549 breast
[6] = tested on: CAKI-1 renal
[7] = tested on: CCRF-CEM leukemia
[8] = tested on: COLO 205 colon
[9] = tested on: DU-145 prostate
[10] = tested on: EKVX NSCLC
[11] = tested on: HCC-2998 colon
[12] = tested on: HCT-116 colon
[13] = tested on: HCT-15 colon
[14] = tested on: HL-60(TB) leukemia
[15] = tested on: HOP-62 NSCLC
[16] = tested on: HOP-92 NSCLC
[17] = tested on: HS 578T breast
[18] = tested on: HT29 colon
[19] = tested on: IGROV1 ovarian
[20] = tested on: K-562 leukemia
[21] = tested on: KM12 colon
[22] = tested on: LOX IMVI melanoma
[23] = tested on: M14 melanoma
[24] = tested on: MALME-3M melanoma
[25] = tested on: MCF7 breast
[26] = tested on: MDA-MB-231 breast
[27] = tested on: MDA-MB-435
[28] = tested on: MOLT-4 leukemia
[29] = tested on: NCI-H226 lung
[30] = tested on: NCI-H23 lung
[31] = tested on: NCI-H460 lung
[32] = tested on: NCI-H522 lung
[33] = tested on: NCI/ADR-RES ovarian
[34] = tested on: OVCAR-4 ovarian
[35] = tested on: OVCAR-5 ovarian
[36] = tested on: OVCAR-8 ovarian
[37] = tested on: PC-3 prostate
[38] = tested on: RPMI-8226 leukemia
[39] = tested on: RXF 393 renal
[40] = tested on: SF-268 CNS
[41] = tested on: SF-295 CNS
[42] = tested on: SF-539 CNS
[43] = tested on: SK-MEL-2 melanoma
[44] = tested on: SK-MEL-28 melanoma
[45] = tested on: SK-MEL-5 melanoma
[46] = tested on: SK-OV-3 ovarian
[47] = tested on: SN12C renal
[48] = tested on: SNB-19 CNS
[49] = tested on: SNB-75 CNS
[50] = tested on: SW-620 colon
[51] = tested on: T-47D breast
[52] = tested on: TK-10 renal
[53] = tested on: U251 CNS
[54] = tested on: UACC-257 melanoma
[55] = tested on: UACC-62 melanoma
[56] = tested on: UO-31 renal

Question: Which GI50 [1] does the source give for CS(=O)(=O)Nc1cc(-c2ccc3ncc(C#N)c(Nc4cccc(Cl)c4F)c3c2)cnc1Cl here?
Answer: The GI50 was 366 nM.

Question: And the TGI [1]?
Answer: Its TGI is 3.55 µM.

Question: What about the GI50 [2] of the same compound?
Answer: The GI50 was 93.7 nM.

Question: And the TGI [2]?
Answer: Its TGI is 471 nM.

Question: What about the GI50 [3] of the same compound?
Answer: Its GI50 is 763 nM.

Question: And the TGI [3]?
Answer: The TGI was 2840 nM.

Question: What about the GI50 [4] of the same compound?
Answer: Its GI50 is 591 nM.

Question: What about the TGI [4] of the same compound?
Answer: Its TGI is 21.2 µM.

Question: What about the GI50 [5] of the same compound?
Answer: The GI50 was 56 nM.

Question: What about the TGI [5] of the same compound?
Answer: The TGI was 959 nM.

Question: And the GI50 [6]?
Answer: The GI50 was 72.9 nM.

Question: And the TGI [6]?
Answer: Its TGI is 1590 nM.

Question: And the GI50 [7]?
Answer: The GI50 was 90.6 nM.

Question: What about the TGI [7] of the same compound?
Answer: The TGI was over 39.9 µM.

Question: And the GI50 [8]?
Answer: Its GI50 is 219 nM.

Question: And the TGI [8]?
Answer: The TGI was 955 nM.

Question: And the GI50 [9]?
Answer: The GI50 was 289 nM.

Question: What about the TGI [9] of the same compound?
Answer: Its TGI is 5.46 µM.

Question: What about the GI50 [10] of the same compound?
Answer: Its GI50 is 367 nM.

Question: And the TGI [10]?
Answer: The TGI was 2630 nM.

Question: And the GI50 [11]?
Answer: Its GI50 is 507 nM.

Question: And the TGI [11]?
Answer: Its TGI is 2190 nM.

Question: And the GI50 [12]?
Answer: The GI50 was 66.5 nM.

Question: What about the TGI [12] of the same compound?
Answer: The TGI was 1140 nM.

Question: And the GI50 [13]?
Answer: The GI50 was 111 nM.

Question: What about the TGI [13] of the same compound?
Answer: The TGI was 2870 nM.

Question: And the GI50 [14]?
Answer: The GI50 was 94 nM.

Question: And the GI50 [15]?
Answer: The GI50 was 198 nM.

Question: And the TGI [15]?
Answer: The TGI was 7.8 µM.

Question: What about the GI50 [16] of the same compound?
Answer: The GI50 was 21.9 nM.

Question: What about the TGI [16] of the same compound?
Answer: The TGI was 348 nM.

Question: What about the GI50 [17] of the same compound?
Answer: The GI50 was 56.7 nM.

Question: What about the TGI [17] of the same compound?
Answer: Its TGI is 537 nM.

Question: And the GI50 [18]?
Answer: Its GI50 is 329 nM.

Question: What about the TGI [18] of the same compound?
Answer: The TGI was 2320 nM.

Question: And the GI50 [19]?
Answer: The GI50 was 101 nM.

Question: And the TGI [19]?
Answer: Its TGI is 869 nM.

Question: What about the GI50 [20] of the same compound?
Answer: Its GI50 is 115 nM.

Question: And the TGI [20]?
Answer: The TGI was over 100 µM.

Question: And the GI50 [21]?
Answer: The GI50 was 324 nM.

Question: What about the TGI [21] of the same compound?
Answer: The TGI was 2090 nM.

Question: And the GI50 [22]?
Answer: The GI50 was 107 nM.

Question: What about the TGI [22] of the same compound?
Answer: The TGI was 641 nM.

Question: What about the GI50 [23] of the same compound?
Answer: Its GI50 is 308 nM.

Question: And the TGI [23]?
Answer: The TGI was 3.58 µM.

Question: What about the GI50 [24] of the same compound?
Answer: The GI50 was 68.3 nM.

Question: What about the TGI [24] of the same compound?
Answer: Its TGI is 708 nM.

Question: And the GI50 [25]?
Answer: The GI50 was 64.3 nM.

Question: What about the TGI [25] of the same compound?
Answer: Its TGI is 4.03 µM.

Question: And the GI50 [26]?
Answer: Its GI50 is 333 nM.

Question: And the TGI [26]?
Answer: The TGI was 2310 nM.

Question: And the GI50 [27]?
Answer: Its GI50 is 277 nM.

Question: What about the TGI [27] of the same compound?
Answer: The TGI was 3 µM.

Question: What about the GI50 [28] of the same compound?
Answer: The GI50 was 82.3 nM.

Question: And the TGI [28]?
Answer: Its TGI is 1580 nM.

Question: And the GI50 [29]?
Answer: The GI50 was 556 nM.

Question: And the TGI [29]?
Answer: Its TGI is 11.1 µM.

Question: And the GI50 [30]?
Answer: The GI50 was 158 nM.

Question: What about the TGI [30] of the same compound?
Answer: The TGI was 9.36 µM.

Question: And the GI50 [31]?
Answer: The GI50 was 391 nM.

Question: And the TGI [31]?
Answer: The TGI was 10.9 µM.

Question: What about the GI50 [32] of the same compound?
Answer: The GI50 was 255 nM.

Question: And the TGI [32]?
Answer: The TGI was 2670 nM.

Question: What about the GI50 [33] of the same compound?
Answer: The GI50 was 1250 nM.

Question: What about the TGI [33] of the same compound?
Answer: Its TGI is 20.7 µM.

Question: What about the GI50 [34] of the same compound?
Answer: The GI50 was 495 nM.

Question: What about the TGI [34] of the same compound?
Answer: Its TGI is 8.09 µM.

Question: And the GI50 [35]?
Answer: The GI50 was 749 nM.

Question: What about the TGI [35] of the same compound?
Answer: Its TGI is 3.92 µM.

Question: And the GI50 [36]?
Answer: The GI50 was 369 nM.

Question: What about the TGI [36] of the same compound?
Answer: Its TGI is 4.23 µM.

Question: What about the GI50 [37] of the same compound?
Answer: Its GI50 is 260 nM.

Question: What about the TGI [37] of the same compound?
Answer: The TGI was 3.6 µM.

Question: And the GI50 [38]?
Answer: The GI50 was 94.7 nM.

Question: And the TGI [38]?
Answer: Its TGI is 1170 nM.

Question: What about the GI50 [39] of the same compound?
Answer: Its GI50 is 76.8 nM.

Question: And the TGI [39]?
Answer: Its TGI is 910 nM.

Question: What about the GI50 [40] of the same compound?
Answer: The GI50 was 87.6 nM.

Question: What about the TGI [40] of the same compound?
Answer: The TGI was 1810 nM.

Question: What about the GI50 [41] of the same compound?
Answer: The GI50 was 267 nM.

Question: And the TGI [41]?
Answer: Its TGI is 3.25 µM.

Question: And the GI50 [42]?
Answer: The GI50 was 181 nM.

Question: And the TGI [42]?
Answer: Its TGI is 2860 nM.

Question: And the GI50 [43]?
Answer: Its GI50 is 29.2 nM.

Question: What about the TGI [43] of the same compound?
Answer: The TGI was 177 nM.

Question: And the GI50 [44]?
Answer: The GI50 was 189 nM.

Question: What about the TGI [44] of the same compound?
Answer: The TGI was 2820 nM.

Question: What about the GI50 [45] of the same compound?
Answer: The GI50 was 49.2 nM.

Question: And the TGI [45]?
Answer: Its TGI is 182 nM.

Question: What about the GI50 [46] of the same compound?
Answer: The GI50 was 360 nM.

Question: And the TGI [46]?
Answer: The TGI was 2610 nM.

Question: What about the GI50 [47] of the same compound?
Answer: Its GI50 is 152 nM.

Question: What about the TGI [47] of the same compound?
Answer: The TGI was 39.4 µM.

Question: What about the GI50 [48] of the same compound?
Answer: The GI50 was 288 nM.

Question: And the TGI [48]?
Answer: Its TGI is 3.11 µM.

Question: What about the GI50 [49] of the same compound?
Answer: The GI50 was under 13.1 nM.

Question: And the TGI [49]?
Answer: The TGI was 395 nM.

Question: What about the GI50 [50] of the same compound?
Answer: The GI50 was 73.3 nM.

Question: What about the TGI [50] of the same compound?
Answer: Its TGI is 1820 nM.

Question: And the GI50 [51]?
Answer: The GI50 was 101 nM.

Question: What about the TGI [51] of the same compound?
Answer: Its TGI is 4.79 µM.

Question: And the GI50 [52]?
Answer: Its GI50 is 84.7 nM.

Question: What about the TGI [52] of the same compound?
Answer: The TGI was 926 nM.

Question: What about the GI50 [53] of the same compound?
Answer: Its GI50 is 59.1 nM.

Question: What about the TGI [53] of the same compound?
Answer: Its TGI is 1280 nM.

Question: What about the GI50 [54] of the same compound?
Answer: The GI50 was 400 nM.

Question: And the TGI [54]?
Answer: Its TGI is 4.54 µM.

Question: What about the GI50 [55] of the same compound?
Answer: Its GI50 is 120 nM.

Question: What about the TGI [55] of the same compound?
Answer: Its TGI is 1580 nM.

Question: What about the GI50 [56] of the same compound?
Answer: The GI50 was 205 nM.

Question: What about the TGI [56] of the same compound?
Answer: The TGI was 2920 nM.
